In patent US20180177749A1, “USE OF CYP EXPRESSION TO DIRECT THERAPEUTIC INTERVENTION IN CANCER” (REGENTS OF THE UNIVERSITY OF MINNESOTA, priority 2016, published 2018):

Key:
MCF-7 cells [1] = assay: Cellular EET levels by LC-ESI/MS/MS; assay type: cell-based, human; details: metformin 5 mM, 6 hours
Procedure: Samples were submitted to liquid chromatography-electrospray ionization/multiple reaction monitoring/mass spectrometry (LC-ESI/MRM/MS) analysis in a Thermo Electron Quantum Discovery Max triple quadrupole mass spectrometer (Thermo Finnigan, San Jose, Calif.) coupled with an Agilent 1100 HPLC (Santa Clara, Calif.), using argon as the collision gas. Negative ion monitoring was performed at the following diagnostic product ions: 319 m/z→155 m/z for 8,9-EET; 319 m/z→179 m/z for 11,12-EET; 319 m/z→219 m/z for 14,15-EET; 339 m/z→163 m/z for 8,9-[13C20]EET; 339 m/z→233 m/z for 11,12-[13C20]EET; and 339 m/z→259 m/z for 14,15-[^13C20]EET. Base-line resolution of EET regioisomers was achieved on a Phenomenex Luna C18 (2) reverse phase capillary column (250×0.5 mm, 5-μm particles) using the following mobile phase combinations: isocratic 5% B for 5 min, gradient 5-70% B for 5 min, hold at 70% for 30 min and then 95% for 10 min; A: 0.01% acetic acid in water, B: 0.01% acetic acid in acetonitrile; […] flow rate. A standard curve was obtained by linear regression of the peak area ratio of authentic EET regioisomers against internal standards. The amount of EETs in samples was calculated according to the standard curve. The (±)-5,6-EET regioisomer was not measured because it undergoes rapid internal degradation. […]

MCF-7 cells [2] = assay: Western blot of signaling proteins, MCF-7; assay type: cell-based, human
Procedure: RIPA extracts of cells were prepared as described previously, in the presence of protease inhibitors and phosphatase inhibitors. Protein concentrations were determined by the micro-bicinchoninic acid (BCA) method, and 30 μg of protein was used for each lane of the SDS-polyacrylamide gel Western blot. Relative protein expression was estimated using GAPDH or β-actin as an internal standard.

CCCCCCNC(=N)NC(=N)NCc1ccccc1 [HBB, N1-hexyl-N5-benzyl-biguanide]
cellular EET levels (MCF-7 cells [1]): doesn't lower total EET levels | dosing for signaling effects relative to metformin (lower) (MCF-7 cells [2]): 250 fold | mTOR, S6 kinase and ERK (MCF-7 cells [2]; 20 μM, by 24 hours, presence or absence of serum): Significant inhibition | onset of AMPK activation (phosphorylation) (MCF-7 cells [2]; HBB 20 μM, metformin 5 mM): within 30 minutes to 1 hour
